Laboratory results published in patent US6140509A (priority 1999, dated 2000).
Numbering of substitutions follows the chain as printed.

Legend:
[1] = system: 5HT2A receptors (cerebral cortex); test: I125-LSD displacement from brain sections, cortex (autoradiography); assay type: binding, Sprague-Dawley rats; conditions: 1 micromolar compound, 1 nanomolar I125-LSD, 30 minutes, room temperature
[2] = system: human mutated 5HT2A receptor, AP-3; test: Receptor-mediated inositol phosphate (IP3) accumulation, AP-3; assay type: cell-based; conditions: statement in words
[3] = system: Adult male Sprague-Dawley rats; test: Amphetamine-stimulated locomotor activity; assay type: in vivo
Excerpt: A 5HT2A receptor antagonist or inverse agonist is expected to decrease amphetamine-stimulated locomotion without affecting baseline locomotion. See, for example, Soresnon, et al, 266(2) J. Pharmacol. Exp. Ther. 684 (1993). […] For the following study, the following parameters and protocol were utilized:
Adult male Sprague-Dawley rats were utilized for these studies. Animals were housed in groups of 2-3 in hanging plastic cages with food and water available at all times. Animals were weighed and handled for at least one day prior to surgery and throughout the studies. For these studies, Vehicle consisted of 90% ethanol (100%) and 10% water.
A San Diego Instruments Flex Field apparatus was used to quantify baseline and amphetamine-stimulated locomotor activity. This apparatus consists of four 16"×16" clear plastic open fields. Photocell arrays (16 in each dimension) interfaced with a personal computer to automatically quantify activity. Several measures of activity can be assessed with the apparatus, including total photocell beam breaks. Animals (vehicle control and Compound treated) were injected s.c. 30 minutes prior to initiation of analysis. Following this 30 minute period, animals were placed individually into an open field and baseline activity was assessed for 30 minutes (habituation phase). […]

[4] = biological target: T1, constitutively active mutant human 5HT2C receptor AP-1 (Homo sapiens, UniProt P28335, S310K); test: [35S]GTPγS binding assay, AP-1 membranes; assay type: biochemical; conditions: 30 μM mianserin, 293T cells, Wallac scintistrips
T1 construct: expressed in transfected cells
T1 sequence (P28335 33-458 S310K): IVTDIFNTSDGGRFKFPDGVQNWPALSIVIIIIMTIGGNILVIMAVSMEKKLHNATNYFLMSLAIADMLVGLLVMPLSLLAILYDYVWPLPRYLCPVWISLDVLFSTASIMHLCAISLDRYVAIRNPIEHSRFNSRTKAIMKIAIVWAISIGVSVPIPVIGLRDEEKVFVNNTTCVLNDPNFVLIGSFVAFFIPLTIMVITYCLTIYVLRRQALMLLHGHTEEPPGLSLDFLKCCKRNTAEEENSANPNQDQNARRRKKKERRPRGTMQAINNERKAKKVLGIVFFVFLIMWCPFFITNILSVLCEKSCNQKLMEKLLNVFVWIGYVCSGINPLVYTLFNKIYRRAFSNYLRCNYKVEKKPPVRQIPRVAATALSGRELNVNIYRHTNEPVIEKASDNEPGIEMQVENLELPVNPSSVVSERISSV

[5] = biological target: T2, endogenous human 5-HT2C receptor (Homo sapiens, UniProt P28335)
T2 sequence (P28335 33-458): T1 sequence (P28335 33-458 S310K) with K278S

Which “displacement of I125-LSD from cortex (5HT2A)” value [1] does the source give for COc1ccc(OC(=O)Nc2cccc(-c3nn(C)cc3Br)c2)cc1 [Compound 116100, N-[3-(4-bromo-1-methylpyrazol-3-yl)phenyl][4-methoxyphenoxy]carboxamide] here?
Its value is “appears to selectively displace the I^125 -LSD from the cortex (5HT2A)”.

For Cn1cc(Br)c(-c2cccc(NC(=O)c3cccs3)c2)n1 [Compound 116102, N-[3-(4-bromo-1-methylpyrazol-3-yl)phenyl][2-thienyl]carboxamide], which “inverse agonist activity at the human 5HT2A receptor” value [2] is on record?
The value was “potent inverse agonist”.

What about the “amphetamine-stimulated locomotion (photobeam breaks)” value ([3]; 116102 s.c. 0.1, 1.0, 5.0 mg/kg, d-amphetamine sulfate 1.0 mg/kg) of the same compound?
Its value is “a decrease in the amphetamine-stimulated locomotion”.

And the “dose-response pattern of locomotor activity” value ([3]; 116102 s.c. 0.1-10 mg/kg, FIGS. 17A-C)?
The value was “a general "inverted U" shaped pattern was observed”.

Which “inhibition of serotonin-stimulated [35S]GTPγS binding, AP-1 (FIG. 10)” value [4] does the source give for CN1CCN2c3ccccc3Cc3ccccc3C2C1 (centres unmarked) [mianserin] here?
Its value is “inhibition”.

What about the “inhibition of serotonin-stimulated [35S]GTPγS binding (FIG. 9)” value ([5]; 30 μM mianserin, COS cells) of the same compound?
The value was “completely inhibited”.

And the “inhibition of serotonin-stimulated [35S]GTPγS binding (FIG. 10)” value ([5]; endogenous human 5-HT2C per text)?
The value was “inhibits this response”.

And the “inhibition of basal constitutive [35S]GTPγS binding (FIG. 10)” value ([5]; no agonist, endogenous human 5-HT2C per text)?
The value was “acts as a partial inverse agonist by inhibiting the basal constitutive binding of [^35 S]GTPγS”.
